Laboratory results published in publication PMC10122656, “Siglec-6 mediates the uptake of extracellular vesicles through a noncanonical glycolipid binding pocket” (Nature Communications, 2023).
Where “and” joins values, the source holds several entries; their conditions need not be identical. Equal entries are not always repeated.

Key:
Assay in all cases: Cell assay (liposome/EV binding, flow cytometry)
Type in all cases: cell-based
CD22 WT CHO cells = target: T1, CD22 WT CHO cells (Homo sapiens, UniProt P20273); conditions: 3 mol% ganglioside liposomes, replicates
T1 construct: expressed in transfected cells
T1 sequence (P20273 20-847): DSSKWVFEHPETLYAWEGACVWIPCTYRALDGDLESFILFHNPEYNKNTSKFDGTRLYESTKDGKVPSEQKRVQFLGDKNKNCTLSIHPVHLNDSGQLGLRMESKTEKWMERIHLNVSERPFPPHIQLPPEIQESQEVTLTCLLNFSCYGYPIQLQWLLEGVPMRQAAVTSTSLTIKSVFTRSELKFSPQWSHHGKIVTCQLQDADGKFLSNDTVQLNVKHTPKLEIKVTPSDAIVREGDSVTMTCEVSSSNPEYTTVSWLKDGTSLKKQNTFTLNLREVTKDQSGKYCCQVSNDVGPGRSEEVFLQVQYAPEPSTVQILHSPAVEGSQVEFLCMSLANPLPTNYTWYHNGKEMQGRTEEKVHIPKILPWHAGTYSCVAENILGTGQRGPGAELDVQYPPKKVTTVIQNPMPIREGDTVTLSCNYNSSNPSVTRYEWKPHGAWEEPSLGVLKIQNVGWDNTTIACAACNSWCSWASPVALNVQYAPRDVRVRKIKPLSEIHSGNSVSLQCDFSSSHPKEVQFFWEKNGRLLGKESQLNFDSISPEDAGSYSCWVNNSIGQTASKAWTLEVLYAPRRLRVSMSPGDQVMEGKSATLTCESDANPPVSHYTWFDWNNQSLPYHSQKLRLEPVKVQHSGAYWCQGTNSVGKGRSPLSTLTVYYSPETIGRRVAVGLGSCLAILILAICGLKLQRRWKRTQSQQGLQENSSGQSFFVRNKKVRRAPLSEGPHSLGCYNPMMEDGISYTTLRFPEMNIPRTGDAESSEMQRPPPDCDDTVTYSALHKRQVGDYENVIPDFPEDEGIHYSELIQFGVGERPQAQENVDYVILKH
Outline: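 Extruded PEGylated DSPC/cholesterol liposomes (100 nm filter; 130 ± 35 nm) bearing Siglec ligand and AF647 lipids. Cells + 50 µM liposome or 50 µg/mL EV, DMEM F12/5% FBS, 37 °C, 30 min; washed; anti-Siglec 1:250, ice 30 min; flow, Siglec+ gate.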

CD33 WT CHO cells = target: T2, CD33 WT CHO cells (Homo sapiens, UniProt P20138); conditions: 3 mol% ganglioside liposomes, replicates
T2 construct: expressed in transfected cells
T2 sequence (P20138 18-364): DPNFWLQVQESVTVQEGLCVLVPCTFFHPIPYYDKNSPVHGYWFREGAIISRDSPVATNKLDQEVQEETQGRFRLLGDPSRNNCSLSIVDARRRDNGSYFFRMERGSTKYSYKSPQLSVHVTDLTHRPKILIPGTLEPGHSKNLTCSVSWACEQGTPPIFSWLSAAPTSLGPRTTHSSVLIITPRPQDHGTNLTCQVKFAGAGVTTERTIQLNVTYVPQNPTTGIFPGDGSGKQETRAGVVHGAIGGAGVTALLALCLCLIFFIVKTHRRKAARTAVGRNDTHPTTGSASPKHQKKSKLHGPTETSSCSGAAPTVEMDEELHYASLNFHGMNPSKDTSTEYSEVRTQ
Outline: (§1)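 Cells are incubated for 30 min at 37 °C with ligand-displaying liposomes (50 µM lipid) or EVs (50 µg/mL protein) in DMEM F12 containing 5% FBS. After washing and anti-Siglec staining on ice, liposome binding is quantified by flow cytometry within the Siglec-positive population.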

[1] = target: T3, Siglec-11 R120A CHO cells (Homo sapiens, UniProt Q96RL6, R132A); conditions: Sig-11 R120A; 3 mol% ganglioside liposomes; replicates
T3 construct: expressed in transfected cells
T3 sequence (Q96RL6 28-698 R132A): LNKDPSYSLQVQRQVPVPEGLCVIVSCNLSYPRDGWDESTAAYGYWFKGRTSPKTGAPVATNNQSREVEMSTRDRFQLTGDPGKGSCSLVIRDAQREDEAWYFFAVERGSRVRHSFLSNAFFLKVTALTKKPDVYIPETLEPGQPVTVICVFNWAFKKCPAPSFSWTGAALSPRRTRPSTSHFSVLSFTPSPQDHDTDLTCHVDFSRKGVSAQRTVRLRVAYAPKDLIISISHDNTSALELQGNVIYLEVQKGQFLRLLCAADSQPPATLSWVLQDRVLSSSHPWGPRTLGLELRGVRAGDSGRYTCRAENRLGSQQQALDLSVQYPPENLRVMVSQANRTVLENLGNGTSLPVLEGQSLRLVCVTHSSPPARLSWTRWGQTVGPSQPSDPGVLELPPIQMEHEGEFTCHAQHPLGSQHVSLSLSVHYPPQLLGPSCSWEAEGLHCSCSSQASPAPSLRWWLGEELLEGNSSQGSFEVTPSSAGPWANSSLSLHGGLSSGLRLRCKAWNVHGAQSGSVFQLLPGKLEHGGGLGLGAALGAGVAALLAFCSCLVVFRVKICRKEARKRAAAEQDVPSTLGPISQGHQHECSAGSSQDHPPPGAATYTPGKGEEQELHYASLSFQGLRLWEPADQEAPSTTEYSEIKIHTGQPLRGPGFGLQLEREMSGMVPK
Outline: as §1

Substance | log10(MFI AF647) of GLL relative to log10(MFI AF647) of the same GLL against UT CHO cells (Fig. 2a) (CD22 WT CHO cells) | log10(MFI AF647) of GLL relative to log10(MFI AF647) of the same GLL against UT CHO cells (Fig. 2a) (CD33 WT CHO cells) | log10(MFI AF647) of GLL relative to log10(MFI AF647) of the same GLL against UT CHO cells (Fig. 2a) [1]
GD1a | 0.06 (2×) and 0.03 and 0.05 | -0.09 and -0.06 and -0.03 and 0.01 | -0.11 and -0.13 and -0.12 (2×)
GD1b | -0.04 and -0.05 and -0.06 (2×) | -0.13 and -0.1 (2×) and -0.07 | -0.11 (2×) and -0.12 (2×)
GD3 | 0.09 and 0.07 and 0.1 (2×) | -0.03 (2×) and -0.01 and 0 | -0.1 and -0.11 and -0.12 (2×)
GM1 | -0.03 (2×) and -0.04 and -0.06 | -0.29 and -0.27 and -0.21 and -0.16 | 0.1 and 0.05 and 0.07 and 0.13
GM2 | 0.01 (3×) and 0 | -0.08 and -0.05 and -0.02 and 0 | -0.07 (2×) and -0.06 (2×)
GM3 | -0.16 and -0.15 (3×) | -0.19 and -0.14 and -0.12 and -0.08 | -0.13 (3×) and -0.12
GM4 | 0.05 (2×) and 0.06 and 0.07 | -0.13 and -0.11 and -0.09 and -0.02 | -0.11 (2×) and -0.1 (2×)
GQ1b | -0.05 (3×) and -0.04 | -0.12 (2×) and -0.14 and -0.09 | -0.19 (2×) and -0.22 and -0.18
GT1b | 0.06 (2×) and 0.04 and 0.05 | -0.09 and -0.1 and -0.08 and -0.06 | -0.17 (2×) and -0.16 and -0.19
